# Source: PubChem BioAssay AID1918993 (Molecular Pharmacology Branch, DTP, NCI, 2023)
# Test system: 233499-124-R-J3-PDC complex spheroid growth
# Assay: Anticancer human tumor 233499-124-R-J3-PDC patient-derived colon adenocarcinoma cell line growth inhibition [AhR]
# Conditions: for viability, T/C: stronger effect = lower value
# Summary of the method: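 Agents were dosed in half-log steps down from roughly clinical Cmax, or from 10 microM where Cmax was unknown, alone and with AhR antagonists. Read-out: percent test/control growth of tumor spheroids containing HUVEC and MSC stromal cells.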
# [1] = curve of first compound, second compound 0.1 µM
# [2] = curve of first compound, second compound 0.316 µM
# [3] = curve of first compound, second compound 1 µM
# [4] = curve of first compound, second compound 3.16 µM
# [5] = curve of first compound, second compound 10 µM
# [6] = second compound 0.1 µM, first compound 0.00949 µM
# [7] = second compound 0.1 µM, first compound 0.03 µM
# [8] = second compound 0.1 µM, first compound 0.0949 µM
# [9] = second compound 0.1 µM, first compound 0.3 µM
# [10] = second compound 0.316 µM, first compound 0.00949 µM
# [11] = second compound 0.316 µM, first compound 0.03 µM
# [12] = second compound 0.316 µM, first compound 0.0949 µM
# [13] = second compound 0.316 µM, first compound 0.3 µM
# [14] = second compound 1 µM, first compound 0.00949 µM
# [15] = second compound 1 µM, first compound 0.03 µM
# [16] = second compound 1 µM, first compound 0.0949 µM
# [17] = second compound 1 µM, first compound 0.3 µM
# [18] = second compound 3.16 µM, first compound 0.00949 µM
# [19] = second compound 3.16 µM, first compound 0.03 µM
# [20] = second compound 3.16 µM, first compound 0.0949 µM
# [21] = second compound 3.16 µM, first compound 0.3 µM
# [22] = second compound 10 µM, first compound 0.00949 µM
# [23] = second compound 10 µM, first compound 0.03 µM
# [24] = second compound 10 µM, first compound 0.0949 µM
# [25] = second compound 10 µM, first compound 0.3 µM
# 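Note: spheroids exposed to agents for seven days before reading.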
smiles,measurement,setting,value
CCN(c1cc(-c2ccc(CN3CCOCC3)cc2)cc(C(=O)NCc2c(C)cc(C)[nH]c2=O)c1C)C1CCOCC1 + Cc1ccccc1N=Nc1ccc(NC(=O)c2ccnn2C)c(C)c1,IC50,[1],> 3000 nM
same,IC50,[2],> 3000 nM
same,IC50,[3],> 3000 nM
same,IC50,[4],> 3000 nM
same,IC50,[5],> 3000 nM
same,"viability, T/C",[6],99.3%
same,"viability, T/C",[7],98%
same,"viability, T/C",[8],95.1%
same,"viability, T/C",[9],97.1%
same,"viability, T/C","second compound 0.1 µM, first compound 0.949 µM",97.2%
same,"viability, T/C","second compound 0.1 µM, first compound 3 µM",102%
same,"viability, T/C",[10],88%
same,"viability, T/C",[11],95.8%
same,"viability, T/C",[12],100%
same,"viability, T/C",[13],95.3%
same,"viability, T/C","second compound 0.316 µM, first compound 0.949 µM",98.3%
same,"viability, T/C","second compound 0.316 µM, first compound 3 µM",96.6%
same,"viability, T/C",[14],107%
same,"viability, T/C",[15],97.6%
same,"viability, T/C",[16],104%
same,"viability, T/C",[17],93.1%
same,"viability, T/C","second compound 1 µM, first compound 0.949 µM",92.3%
same,"viability, T/C","second compound 1 µM, first compound 3 µM",100%
same,"viability, T/C",[18],95.1%
same,"viability, T/C",[19],93.9%
same,"viability, T/C",[20],105%
same,"viability, T/C",[21],91.7%
same,"viability, T/C","second compound 3.16 µM, first compound 0.949 µM",92.6%
same,"viability, T/C","second compound 3.16 µM, first compound 3 µM",93.7%
same,"viability, T/C",[22],101%
same,"viability, T/C",[23],96.1%
same,"viability, T/C",[24],91.8%
same,"viability, T/C",[25],92.7%
same,"viability, T/C","second compound 10 µM, first compound 0.949 µM",93.9%
same,"viability, T/C","second compound 10 µM, first compound 3 µM",99.5%
NS(=O)(=O)OCC1CC(n2ccc3c(NC4CCc5ccccc54)ncnc32)CC1O (stereo not drawn) + CC(CO)NC(=O)c1cc(-c2ccc(Cl)cc2)nn(-c2cnn(C)c2)c1=O,IC50,[1],229 nM
same,IC50,[2],196 nM
same,IC50,[3],214 nM
same,IC50,[4],194 nM
same,IC50,[5],112 nM
same,"viability, T/C","second compound 0.1 µM, first compound 0.0316 µM",100%
same,"viability, T/C","second compound 0.1 µM, first compound 0.1 µM",81.9%
same,"viability, T/C","second compound 0.1 µM, first compound 0.316 µM",38.2%
same,"viability, T/C","second compound 0.1 µM, first compound 1 µM",6.95%
same,"viability, T/C","second compound 0.1 µM, first compound 3.16 µM",3.58%
same,"viability, T/C","second compound 0.1 µM, first compound 10 µM",2.89%
same,"viability, T/C","second compound 0.316 µM, first compound 0.0316 µM",101%
same,"viability, T/C","second compound 0.316 µM, first compound 0.1 µM",76.1%
same,"viability, T/C","second compound 0.316 µM, first compound 0.316 µM",32.2%
same,"viability, T/C","second compound 0.316 µM, first compound 1 µM",4.48%
same,"viability, T/C","second compound 0.316 µM, first compound 3.16 µM",2.85%
same,"viability, T/C","second compound 0.316 µM, first compound 10 µM",1.79%
same,"viability, T/C","second compound 1 µM, first compound 0.0316 µM",97.3%
same,"viability, T/C","second compound 1 µM, first compound 0.1 µM",83.6%
same,"viability, T/C","second compound 1 µM, first compound 0.316 µM",32.7%
same,"viability, T/C","second compound 1 µM, first compound 1 µM",7.56%
same,"viability, T/C","second compound 1 µM, first compound 3.16 µM",2.89%
same,"viability, T/C","second compound 1 µM, first compound 10 µM",2.21%
same,"viability, T/C","second compound 3.16 µM, first compound 0.0316 µM",97.8%
same,"viability, T/C","second compound 3.16 µM, first compound 0.1 µM",85.1%
same,"viability, T/C","second compound 3.16 µM, first compound 0.316 µM",23.9%
same,"viability, T/C","second compound 3.16 µM, first compound 1 µM",7.17%
same,"viability, T/C","second compound 3.16 µM, first compound 3.16 µM",4.49%
same,"viability, T/C","second compound 3.16 µM, first compound 10 µM",4.6%
same,"viability, T/C","second compound 10 µM, first compound 0.0316 µM",89.6%
same,"viability, T/C","second compound 10 µM, first compound 0.1 µM",54%
same,"viability, T/C","second compound 10 µM, first compound 0.316 µM",12.6%
same,"viability, T/C","second compound 10 µM, first compound 1 µM",4.19%
same,"viability, T/C","second compound 10 µM, first compound 3.16 µM",4.04%
same,"viability, T/C","second compound 10 µM, first compound 10 µM",2.93%
Cc1ccccc1N=Nc1ccc(NC(=O)c2ccnn2C)c(C)c1,"viability, T/C",compound 0.1 µM,102% [middle of 20 runs]
same,"viability, T/C",compound 10 µM,97.8% [middle of 20 runs]
same,IC50,"compound alone, run of 07/26/2022",> 10000 nM
CC(C)CC(NC(=O)C(Cc1ccccc1)NC(=O)c1cnccn1)B(O)O (stereo not drawn) + Cc1ccccc1N=Nc1ccc(NC(=O)c2ccnn2C)c(C)c1,IC50,[1],16.3 nM
same,IC50,[2],16.5 nM
same,IC50,[3],18.2 nM
same,IC50,[4],15.6 nM
same,IC50,[5],17.3 nM
same,"viability, T/C","second compound 0.1 µM, first compound 0.000949 µM",103%
same,"viability, T/C","second compound 0.1 µM, first compound 0.003 µM",110%
same,"viability, T/C",[6],94.1%
same,"viability, T/C",[7],0.26%
same,"viability, T/C",[8],0.06%
same,"viability, T/C",[9],0.13%
same,"viability, T/C","second compound 0.316 µM, first compound 0.000949 µM",99.4%
same,"viability, T/C","second compound 0.316 µM, first compound 0.003 µM",108%
same,"viability, T/C",[10],94.5%
same,"viability, T/C",[11],1.73%
same,"viability, T/C",[12],0.06%
same,"viability, T/C",[13],0.13%
same,"viability, T/C","second compound 1 µM, first compound 0.000949 µM",111%
same,"viability, T/C","second compound 1 µM, first compound 0.003 µM",110%
same,"viability, T/C",[14],98.1%
same,"viability, T/C",[15],12.9%
same,"viability, T/C",[16],0.64%
same,"viability, T/C",[17],0.14%
same,"viability, T/C","second compound 3.16 µM, first compound 0.000949 µM",111%
same,"viability, T/C","second compound 3.16 µM, first compound 0.003 µM",96.9%
same,"viability, T/C",[18],83.8%
same,"viability, T/C",[19],5.62%
same,"viability, T/C",[20],0.09%
same,"viability, T/C",[21],0.14%
same,"viability, T/C","second compound 10 µM, first compound 0.000949 µM",106%
same,"viability, T/C","second compound 10 µM, first compound 0.003 µM",108%
same,"viability, T/C",[22],105%
same,"viability, T/C",[23],0.37%
same,"viability, T/C",[24],0.18%
same,"viability, T/C",[25],0.22%
